Test results as given in the CheMixHub ionic liquid set.
± gives the uncertainty stated by the source.

Assay: xn = mol fraction of the nth substance listed

CCCCCC[n+]1ccn(C)c1.F[B-](F)(F)F + CN(CCO)CCO
101 kPa
Conditions	viscosity [mPa·s]
303.15 K, x2 = 0.3916	72.6 ± 4.4
303.15 K, x2 = 0.4949	69.8 ± 4.3
303.15 K, x2 = 0.7928	62.2 ± 3.8
313.15 K, x2 = 0.5936	41.8 ± 2.6
313.15 K, x2 = 0.8824	36.8 ± 2.2
318.15 K, x2 = 0.4949	34.3 ± 2.1

CC[n+]1ccn(C)c1.O=C([O-])C(F)(F)F + O
101 kPa
Conditions	electrical conductivity, 298.15 K [S/m]	electrical conductivity, 313.15 K [S/m]	viscosity, 293.15 K [mPa·s]	viscosity, 298.15 K [mPa·s]	viscosity, 303.15 K [mPa·s]	viscosity, 313.15 K [mPa·s]
x1 = 0.001	0.3 ± 0.01	0.41 ± 0.02	1.01 ± 0.02	0.9 ± 0.02	0.8 ± 0.02	0.66 ± 0.02
x1 = 0.003	0.79 ± 0.03	1.1 ± 0.1	1.05 ± 0.02	0.93 ± 0.02	0.84 ± 0.02	0.69 ± 0.02
x1 = 0.004	1.2 ± 0.1	1.6 ± 0.1	1.1 ± 0.02	0.98 ± 0.02	0.87 ± 0.02	0.72 ± 0.02
x1 = 0.006	1.6 ± 0.1	2.2 ± 0.1	1.16 ± 0.03	1.03 ± 0.02	0.92 ± 0.02	0.75 ± 0.02
x1 = 0.009	2 ± 0.1	2.5 ± 0.1	1.24 ± 0.03	1.1 ± 0.02	0.98 ± 0.02	0.81 ± 0.02
x1 = 0.014	2.6 ± 0.1	3.7 ± 0.2	1.4 ± 0.03	1.25 ± 0.03	1.12 ± 0.02	0.92 ± 0.02
x1 = 0.02	3.1 ± 0.1	4.4 ± 0.2	1.57 ± 0.03	1.4 ± 0.03	1.2 ± 0.03	0.97 ± 0.02
x1 = 0.033	4 ± 0.2	5.6 ± 0.2	2.01 ± 0.04	1.75 ± 0.04	1.54 ± 0.03	1.21 ± 0.03
x1 = 0.051	4.4 ± 0.2	6.6 ± 0.3	2.53 ± 0.05	2.2 ± 0.05	1.92 ± 0.04	1.5 ± 0.03
x1 = 0.065	4.6 ± 0.2	6.9 ± 0.3	3 ± 0.06	2.58 ± 0.05	2.24 ± 0.05	1.74 ± 0.04
x1 = 0.108	4.5 ± 0.2	6.9 ± 0.3	4.39 ± 0.09	3.76 ± 0.08	3.25 ± 0.07	2.49 ± 0.05
x1 = 0.159	4.2 ± 0.2	6.3 ± 0.3	6.17 ± 0.13	5.28 ± 0.11	4.55 ± 0.09	3.46 ± 0.07
x1 = 0.243	3.5 ± 0.2	5.3 ± 0.2	8.98 ± 0.19	7.65 ± 0.16	6.56 ± 0.14	4.96 ± 0.1
x1 = 0.406	2.5 ± 0.1	3.7 ± 0.2	–	–	–	–
x1 = 0.418	–	–	14.4 ± 0.3	12.3 ± 0.3	10.6 ± 0.2	8 ± 0.2
x1 = 0.502	2.2 ± 0.1	3.4 ± 0.1	17.3 ± 0.4	14.8 ± 0.3	12.6 ± 0.3	9.5 ± 0.2
x1 = 0.53	2 ± 0.1	3.1 ± 0.1	18.7 ± 0.4	15.9 ± 0.3	13.6 ± 0.3	10.2 ± 0.2
x1 = 0.759	1.5 ± 0.1	2.3 ± 0.1	26.8 ± 0.6	22.7 ± 0.5	19.3 ± 0.4	14.3 ± 0.3
x1 = 1	1 ± 0.1	1.6 ± 0.1	39.5 ± 0.9	32.9 ± 0.7	27.5 ± 0.6	19.9 ± 0.5

Cn1cc[n+](CCO)c1.[Cl-] + O
100 kPa
Conditions	electrical conductivity, 293.15 K [S/m]	electrical conductivity, 298.15 K [S/m]	electrical conductivity, 303.15 K [S/m]	electrical conductivity, 308.15 K [S/m]	electrical conductivity, 313.15 K [S/m]	viscosity, 293.15 K [mPa·s]	viscosity, 298.15 K [mPa·s]	viscosity, 303.15 K [mPa·s]	viscosity, 308.15 K [mPa·s]	viscosity, 313.15 K [mPa·s]
x1 = 3.478e-05	0.0241 ± 0.0077	0.0281 ± 0.0089	0.0319 ± 0.0097	0.036 ± 0.011	0.04 ± 0.012	–	–	–	–	–
x1 = 5.784e-05	0.0382 ± 0.0072	0.0443 ± 0.0084	0.0496 ± 0.0093	0.056 ± 0.01	0.062 ± 0.011	–	–	–	–	–
x1 = 9.73e-05	0.0597 ± 0.0068	0.0693 ± 0.0081	0.0776 ± 0.009	0.0866 ± 0.0097	0.095 ± 0.01	1.015 ± 0.021	0.904 ± 0.019	0.815 ± 0.017	0.738 ± 0.015	0.676 ± 0.014
x1 = 0.0001191	0.0701 ± 0.0057	0.082 ± 0.0067	0.0913 ± 0.0074	0.1 ± 0.0076	0.11 ± 0.0084	–	–	–	–	–
x1 = 0.0001798	0.0949 ± 0.0058	0.111 ± 0.0068	0.123 ± 0.0075	0.133 ± 0.0079	0.146 ± 0.0086	–	–	–	–	–
x1 = 0.0002349	0.117 ± 0.0059	0.136 ± 0.0068	0.151 ± 0.0074	0.163 ± 0.0078	0.178 ± 0.0085	1.023 ± 0.021	0.912 ± 0.019	0.826 ± 0.017	0.75 ± 0.016	0.69 ± 0.014
x1 = 0.0002827	0.133 ± 0.0057	0.154 ± 0.0065	0.171 ± 0.0071	0.183 ± 0.0078	0.2 ± 0.0082	1.025 ± 0.021	0.914 ± 0.019	0.829 ± 0.017	0.753 ± 0.016	0.694 ± 0.015
x1 = 0.0003387	0.15 ± 0.0058	0.173 ± 0.0067	0.192 ± 0.0076	0.209 ± 0.0081	0.224 ± 0.0087	–	–	–	–	–
x1 = 0.0003943	0.165 ± 0.006	0.191 ± 0.0069	0.214 ± 0.0077	0.228 ± 0.0084	0.248 ± 0.0092	1.029 ± 0.021	0.92 ± 0.019	0.835 ± 0.017	0.76 ± 0.016	0.702 ± 0.015
x1 = 0.000458	–	–	–	–	–	1.032 ± 0.021	0.922 ± 0.019	0.838 ± 0.017	0.764 ± 0.016	0.706 ± 0.015
x1 = 0.0005686	–	–	–	–	–	1.036 ± 0.022	0.926 ± 0.019	0.844 ± 0.018	0.77 ± 0.016	0.713 ± 0.015
x1 = 0.0007379	–	–	–	–	–	1.041 ± 0.022	0.933 ± 0.019	0.851 ± 0.018	0.778 ± 0.016	0.722 ± 0.015
x1 = 0.0009513	–	–	–	–	–	1.048 ± 0.022	0.94 ± 0.02	0.86 ± 0.018	0.787 ± 0.016	0.732 ± 0.015
x1 = 0.001272	–	–	–	–	–	1.056 ± 0.022	0.949 ± 0.02	0.872 ± 0.018	0.799 ± 0.017	0.746 ± 0.016
x1 = 0.001562	–	–	–	–	–	1.063 ± 0.022	0.957 ± 0.02	0.882 ± 0.018	0.809 ± 0.017	0.757 ± 0.016

CCCCCC[n+]1ccn(C)c1.F[B-](F)(F)F + CCCC[n+]1ccn(C)c1.F[B-](F)(F)F
101 kPa
Conditions	viscosity [mPa·s]
298.15 K, x2 = 0.103	195.1 ± 9.1
298.15 K, x2 = 0.8917	115.3 ± 3.5
299.15 K, x2 = 0.103	184.2 ± 8.3
299.15 K, x2 = 0.809	115.7 ± 3.5
301.15 K, x2 = 0.809	104.4 ± 2.9
301.15 K, x2 = 0.8917	98.6 ± 2.6
302.15 K, x2 = 0.3602	132.9 ± 4.6
302.15 K, x2 = 0.555	115.9 ± 3.5
302.15 K, x2 = 0.8917	93.9 ± 2.3
303.15 K, x2 = 0.3602	126.2 ± 4.2
303.15 K, x2 = 0.555	110 ± 3.2
303.15 K, x2 = 0.809	94.5 ± 2.3
303.15 K, x2 = 0.8917	89.3 ± 2.1
304.15 K, x2 = 0.103	139.2 ± 5
304.15 K, x2 = 0.5047	110 ± 3.2
305.15 K, x2 = 0.3602	113.5 ± 3.3
305.15 K, x2 = 0.4383	107.7 ± 3
305.15 K, x2 = 0.598	98.5 ± 2.5
305.15 K, x2 = 0.809	85.6 ± 1.9
307.15 K, x2 = 0.054	123.9 ± 4
308.15 K, x2 = 0.103	113 ± 3.4
308.15 K, x2 = 0.3602	97.3 ± 2.5
308.15 K, x2 = 0.4383	92.8 ± 2.2
